In patent US20250339387A1, “MITOXANTHRONE DERIVATIVES AS RAS INHIBITORS” (KHR Biotec GmbH, priority 2022, published 2025):

What was measured:
Assay type in all cases: cell-based
HCT-116 cells = test: Soft agar colony formation assay with MTT readout; conditions: Homo sapiens, growth in soft agar, colonies stained with MTT, absorbance 570 nm, 3 independent experiments
Experimental: (§1) Metabolic activity was quantified using Cell Proliferation Kit I (Roche, Basel, Switzerland). Cells were seeded in 96-well cell culture plates, using 5000 cells per well for NCI-H358 cells. After treatment, 10 μl of MTT solution was added and incubated for 2 h in CO2 incubator. Then 100 μl of solubilization buffer was added to each well and incubated overnight in CO2 incubator. Cell viability, assessed by the amount of metabolized MTT, was quantified by measuring absorbance at 570 nm.
(§2) MTT assay for the growth of different tumor cell lines with RAS mutations in soft agar with Mitoxantrone hydrochloride. Shown are data from three independent experiments. NCI-H358, H358, H2122, ASPC-1, HCT-116, T24 and HT1080 cells were used for the soft agar colony formation assay. After the treatment with Mitoxantrone HCl, the colonies were stained with MTT and the value was quantified by measuring absorbance at 570 nm after solubilization. The results represent mean±SEM from 3 independent experiments.

NCI-H358 cells = test: Soft agar colony formation assay with MTT readout; conditions: Homo sapiens, growth in soft agar, colonies stained with MTT, absorbance 570 nm, 3 independent experiments
Experimental: as §1, §2

ASPC1 cells = test: Soft agar colony formation assay with MTT readout; conditions: Homo sapiens, growth in soft agar, colonies stained with MTT, absorbance 570 nm, 3 independent experiments
Experimental: as §1, §2

T24 cells = test: Soft agar colony formation assay with MTT readout; conditions: Homo sapiens; growth in soft agar, colonies stained with MTT, absorbance 570 nm, 3 independent experiments
Experimental: as §1, §2

HT1080 cells = test: Soft agar colony formation assay with MTT readout; conditions: Homo sapiens, HT-1080; growth in soft agar, colonies stained with MTT, absorbance 570 nm, 3 independent experiments
Experimental: as §1, §2

NCI-H2122 cells = test: Soft agar colony formation assay with MTT readout; conditions: Homo sapiens, growth in soft agar, colonies stained with MTT, absorbance 570 nm, 3 independent experiments
Experimental: as §1, §2

[1] = tested on: BaF3 KRAS G12C/Y96D cells; test: MTT assay for cell viability in 96 well cell culture plate; conditions: Mus musculus, 48 h treatment
BaF3 KRAS G12C cells = test: as above; conditions: Mus musculus, 48 h treatment
HRAS G12V = target: T1, HRAS G12V (Homo sapiens, UniProt P01112, G12V); test: NanoBit assay for RAS activation (LgBiT-RAS / SmBiT-CRAF RBD); conditions: 2 h with inhibitor in serum free DMEM
T1 construct: K, N and HRAS G12V (full length) was cloned with Xho I and Bgl Ito LgBit; expressed in transfected cells
Experimental: (§3) N-terminal LgBiT and C-terminal SmBiT construct was purchased from Promega and K, N and HRAS G12V (full length) was cloned with Xho I and Bgl Ito LgBit and CRAF Ras binding domain (1-149) was cloned with EcoRI and Bgl II to SmBit. For transfections, 1 μg or 2 μg of (12 well/6 well) plasmids were transfected into cells with 0.5 mM of PEI reagent in 100 μl or 200 μl PBS. One day after transfection, cells were harvested and seeded into 96 well white plates, half area (Greiner). After an additional day the medium was changed to serum free DMEM and the cells were incubated for 2 h with inhibitor. NanoGlo assay was performed according to the manufacturer's instructions. The luminescence was measured using Tecan infinite (Tecan).

NRAS G12V = target: T2, NRAS G12V (Homo sapiens, UniProt P01111, G12V); test: as above; conditions: 2 h with inhibitor in serum free DMEM
T2 construct: K, N and HRAS G12V (full length) was cloned with Xho I and Bgl Ito LgBit; expressed in transfected cells
Experimental: as §3

KRAS G12V = target: T3, KRAS G12V (Homo sapiens, UniProt P01116, G12V); test: as above; conditions: 2 h with inhibitor in serum free DMEM
T3 construct: K, N and HRAS G12V (full length) was cloned with Xho I and Bgl Ito LgBit; expressed in transfected cells
Experimental: as §3

[2] = tested on: KRAS mutants (G12V, G12C, G12D, G12C/Y96D, G13C, G13D, G13S, Q61K and Q61R); test: NanoBiT assay for RAS GTP-loading in HeLa cells, LgBit-KRAS mutants and SmBit-CRAF-RBD; conditions: 2 h in serum-free DMEM, normalized to DMSO
Experimental: NanoBiT assay for the RAS GTP-loading was performed in HeLa cells transfected with LgBit-KRAS mutants and SmBit-CRAF-RBD. Cells were treated with Mitoxantrone HCl for 2 h in serum-free DMEM. After incubation, the substrate for NanoLuc was added, and the luminescence was measured in a multiplate reader. Data were normalized to cells transfected with the indicated mutant and exposed to DMSO for 2 h. DMSO-treated cells were set as 1. The bars represent mean±SEM from 3 independent experiments.

sNF96.2 cells = test: RASOpathie-Model, MTT assay for cell viability in 96 well cell culture plate; conditions: 48 h treatment
Experimental: FIG. 5: RASOpathie-Model of Mitoxantrone HCl; MTT assay for cell viability in 96 well cell culture plate
Cells were treated with Mitoxantrone HCl for 48 h and cell viability was evaluated by MTT assay. DMSO-treated cells were set as 1. The results shown are mean±SEM from 3 independent experiments.

T2 sequence (P01111 whole entry G12V): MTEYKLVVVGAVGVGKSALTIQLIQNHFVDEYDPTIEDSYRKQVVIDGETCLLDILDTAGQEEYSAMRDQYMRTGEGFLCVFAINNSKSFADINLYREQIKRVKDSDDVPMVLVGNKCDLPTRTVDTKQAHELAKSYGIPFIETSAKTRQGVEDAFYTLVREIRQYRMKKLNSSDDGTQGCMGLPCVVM

Cl.Cl.O=C1c2c(O)ccc(O)c2C(=O)c2c(NCCNCCO)ccc(NCCNCCO)c21 [Mitoxantrone HCl, 1,4-dihydroxy-5,8-bis({2-[(2-hydroxy-ethyl)amino]ethyl}amino)-9,10-anthrachinone dihydrochloride]
IC50 (HCT-116 cells): 0.27 µM
IC50 (NCI-H358 cells): 1.5 µM
IC50 (ASPC1 cells): 0.6 µM
IC50 (T24 cells): 0.43 µM
IC50 (HT1080 cells): 0.13 µM
IC50 (NCI-H2122 cells): 0.25 µM
IC50 [1]: 24 µM
IC50 (BaF3 KRAS G12C cells): 24.2 µM
RAS activation, H-RAS (NanoBit luminescence) (HRAS G12V): inhibits
RAS activation, N-RAS (NanoBit luminescence) (NRAS G12V): inhibits
RAS activation, K-RAS (NanoBit luminescence) (KRAS G12V): inhibits
RAS activation / GTP-loading of KRAS mutants (NanoBiT luminescence) [2]: inhibits
IC50 (sNF96.2 cells): 3.71 µM
